The values below come from ChEMBL document CHEMBL3400118, “New approaches to the synthesis of sildenafil analogues and their enzyme inhibitory activity” (Bioorg Med Chem, 2015).

The target in experiment [1] is Carbonic anhydrase 12 (Homo sapiens, UniProt O43570). Nature of the experiment: Inhibition of human carbonic anhydrase 12 preincubated for 15 mins by CO2 hydration assay.
In experiment [2] the target is Carbonic anhydrase 1 (Homo sapiens, UniProt P00915). Kind of experiment: Inhibition of human carbonic anhydrase 1 preincubated for 15 mins by CO2 hydration assay.
In experiment [3] the target is Cyclin-dependent kinase 2/cyclin E1 (Homo sapiens, UniProt P24941). Nature of the experiment: Inhibition of CDK2/Cyclin E (unknown origin) using histone H1 as substrate by [gamma-33P]ATP assay. The class given is protein-complex assay.
Experiment [4] deals with MCF7. Nature of the experiment: Cytotoxicity against human MCF7 cells after 72 hrs using Calcein AM by fluorescence assay. It is filed as functional, cell-based. The conditions noted are these: MCF7, 72 h.
The target of experiment [5] is Carbonic anhydrase 9 (Homo sapiens, UniProt Q16790). Nature of the experiment: Inhibition of human carbonic anhydrase 9 preincubated for 15 mins by CO2 hydration assay.
The target in experiment [6] is Carbonic anhydrase 2 (Homo sapiens, UniProt P00918). Kind of experiment: Inhibition of human carbonic anhydrase 2 preincubated for 15 mins by CO2 hydration assay.
Experiment [7] deals with Tyrosine-protein kinase ABL1 (Homo sapiens, UniProt P00519). Nature of the experiment: Inhibition of Abl (unknown origin) using GGEAIYAAPFKK peptide as substrate by [gamma-33P]ATP assay.
Experiment [8] relates to K562. Nature of the experiment: Cytotoxicity against human K562 cells after 72 hrs using Calcein AM by fluorescence assay. The class given is functional, cell-based. To be noted: K562, 72 h.

Sequence of Tyrosine-protein kinase ABL1 (P00519 whole entry): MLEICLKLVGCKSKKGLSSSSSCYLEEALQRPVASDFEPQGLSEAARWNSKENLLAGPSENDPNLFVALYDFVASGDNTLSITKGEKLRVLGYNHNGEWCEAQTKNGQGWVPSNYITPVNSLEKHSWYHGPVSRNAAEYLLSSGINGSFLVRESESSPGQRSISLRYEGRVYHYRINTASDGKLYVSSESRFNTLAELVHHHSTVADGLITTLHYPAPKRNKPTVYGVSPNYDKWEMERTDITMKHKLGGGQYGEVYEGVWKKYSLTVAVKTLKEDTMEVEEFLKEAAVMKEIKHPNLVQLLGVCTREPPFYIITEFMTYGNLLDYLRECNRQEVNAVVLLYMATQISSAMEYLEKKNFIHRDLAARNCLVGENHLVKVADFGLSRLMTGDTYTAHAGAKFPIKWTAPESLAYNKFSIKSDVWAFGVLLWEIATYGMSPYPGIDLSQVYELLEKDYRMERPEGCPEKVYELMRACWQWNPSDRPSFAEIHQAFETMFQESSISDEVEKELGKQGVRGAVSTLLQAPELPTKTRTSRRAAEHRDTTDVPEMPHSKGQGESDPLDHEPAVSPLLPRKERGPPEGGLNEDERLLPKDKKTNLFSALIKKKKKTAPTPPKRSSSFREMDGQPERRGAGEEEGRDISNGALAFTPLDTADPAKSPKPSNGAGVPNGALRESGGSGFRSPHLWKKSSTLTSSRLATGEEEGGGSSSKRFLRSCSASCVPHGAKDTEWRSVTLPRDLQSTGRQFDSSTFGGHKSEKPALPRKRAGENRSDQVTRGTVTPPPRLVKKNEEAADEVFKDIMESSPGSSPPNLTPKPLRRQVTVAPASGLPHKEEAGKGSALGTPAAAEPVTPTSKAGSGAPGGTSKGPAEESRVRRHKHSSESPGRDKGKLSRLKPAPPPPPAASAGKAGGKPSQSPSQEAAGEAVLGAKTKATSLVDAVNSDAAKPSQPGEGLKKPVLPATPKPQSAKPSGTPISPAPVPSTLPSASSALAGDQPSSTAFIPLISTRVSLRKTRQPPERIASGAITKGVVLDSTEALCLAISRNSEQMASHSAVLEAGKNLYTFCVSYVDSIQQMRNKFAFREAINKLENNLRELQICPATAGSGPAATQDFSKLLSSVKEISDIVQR
Sequence of Carbonic anhydrase 1 (P00915 whole entry): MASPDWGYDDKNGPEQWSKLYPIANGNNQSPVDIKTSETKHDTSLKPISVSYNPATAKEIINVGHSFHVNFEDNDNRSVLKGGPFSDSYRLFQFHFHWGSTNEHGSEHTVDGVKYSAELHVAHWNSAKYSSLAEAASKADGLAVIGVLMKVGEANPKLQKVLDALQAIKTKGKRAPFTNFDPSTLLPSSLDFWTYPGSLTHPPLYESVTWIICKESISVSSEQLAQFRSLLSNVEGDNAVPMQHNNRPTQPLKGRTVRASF
Sequence of Carbonic anhydrase 12 (O43570 whole entry): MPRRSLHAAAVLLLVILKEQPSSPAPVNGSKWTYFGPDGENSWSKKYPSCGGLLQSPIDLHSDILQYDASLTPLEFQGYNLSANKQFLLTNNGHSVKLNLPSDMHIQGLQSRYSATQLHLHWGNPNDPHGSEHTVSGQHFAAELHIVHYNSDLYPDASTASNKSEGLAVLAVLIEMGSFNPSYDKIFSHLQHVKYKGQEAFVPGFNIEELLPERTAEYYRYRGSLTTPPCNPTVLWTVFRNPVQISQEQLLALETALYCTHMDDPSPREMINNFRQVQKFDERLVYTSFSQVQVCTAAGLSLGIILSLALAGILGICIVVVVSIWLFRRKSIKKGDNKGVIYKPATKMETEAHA

One may read the Ki as a measure of affinity in units of concentration, obtained from inhibition or displacement. Higher therefore signals lower affinity. In general, IC50 refers to the midpoint of a concentration-inhibition curve. Turning to `CCOc1ccc(S(=O)(=O)N2CCN(C)CC2)cc1-c1nnc2c(n1)c(C)nn2C`, the Ki was 0.636 µM in experiment [1], more than 10 µM in experiment [2], 0.0377 µM in experiment [5] and more than 10 µM in experiment [6]. For the same compound, the IC50 in experiment [3] was more than 50 µM; in experiment [4], more than 25 µM; in experiment [7] it was more than 50 µM; in experiment [8], more than 25 µM.
On to `CCOc1ccc(S(=O)(=O)N2CCNCC2)cc1-c1nnc2c(n1)c(C)nn2C`, for which the inhibition constant Ki was 0.616 µM in experiment [1], more than 10 µM in experiment [2], 0.0401 µM in experiment [5] and more than 10 µM in experiment [6]. Also, the IC50 in experiment [3] was more than 50 µM; in experiment [4] it was more than 25 µM; in experiment [7] it was more than 50 µM; in experiment [8], more than 25 µM.
As for `CCOc1ccc(S(=O)(=O)N2CCOCC2)cc1-c1nnc2c(n1)c(C)nn2C`, the Ki in experiment [1] is 0.0302 µM; in experiment [2], more than 10 µM; in experiment [5] it was 0.0244 µM; in experiment [6], more than 10 µM. For the same compound, the IC50 in experiment [3] is more than 50 µM; in experiment [4], more than 25 µM; in experiment [7] it was more than 50 µM; in experiment [8], more than 25 µM.
Consider `CCOc1ccc(S(=O)(=O)N2CCCCC2)cc1-c1nnc2c(n1)c(C)nn2C`, for which the inhibitory constant (Ki) in experiment [1] is 0.579 µM; in experiment [2] it was more than 10 µM; in experiment [5], 0.0281 µM; in experiment [6] it was more than 10 µM. Besides, the IC50 in experiment [3], in experiment [4], in experiment [7] and in experiment [8] was more than 25 µM throughout.
Regarding `CCOc1ccc(S(=O)(=O)N2CCCC2)cc1-c1nnc2c(n1)c(C)nn2C`, the inhibition constant (Ki) in experiment [1] is 0.606 µM; in experiment [2], more than 10 µM; in experiment [5] it was 0.0403 µM; in experiment [6], more than 10 µM. The IC50 is more than 50 µM in experiment [3], more than 25 µM in experiment [4], more than 50 µM in experiment [7] and more than 25 µM in experiment [8].
Consider `CCOc1ccc(S(=O)(=O)N2CCCNCC2)cc1-c1nnc2c(n1)c(C)nn2C`, for which the inhibitory constant (Ki) is 0.667 µM in experiment [1], more than 10 µM in experiment [2], 0.0309 µM in experiment [5] and more than 10 µM in experiment [6]. The IC50 in experiment [3] was 44.3 µM; in experiment [4], more than 25 µM; in experiment [7] it was 5.9 µM; in experiment [8], more than 25 µM.
On to `CCOc1ccc(S(=O)(=O)NCCN)cc1-c1nnc2c(n1)c(C)nn2C`, for which the Ki is 0.0573 µM in experiment [1], more than 10 µM in experiment [2], 0.0334 µM in experiment [5] and more than 10 µM in experiment [6]. Further, the concentration for half-maximal inhibition (IC50) was more than 50 µM in experiment [3], more than 25 µM in experiment [4], more than 50 µM in experiment [7] and more than 25 µM in experiment [8].
Turning to `CCOc1ccc(S(=O)(=O)NCCN2CCOCC2)cc1-c1nnc2c(n1)c(C)nn2C`, the Ki in experiment [1] was 0.0595 µM; in experiment [2], more than 10 µM; in experiment [5], 0.0398 µM; in experiment [6], more than 10 µM. In addition, the IC50 is more than 50 µM in experiment [3], more than 25 µM in experiment [4], more than 50 µM in experiment [7] and more than 25 µM in experiment [8].
On to `CCOc1ccc(S(=O)(=O)NCCO)cc1-c1nnc2c(n1)c(C)nn2C`, for which the inhibition constant (Ki) in experiment [1] was 0.0073 µM; in experiment [2], more than 10 µM; in experiment [5], 0.0381 µM; in experiment [6], more than 10 µM. The IC50 in experiment [3] was more than 50 µM; in experiment [4], more than 25 µM; in experiment [7], more than 50 µM; in experiment [8] it was more than 25 µM.
As to `CCCc1nn(C)c2nnc(-c3cc(S(=O)(=O)N4CCN(C)CC4)ccc3OCC)nc12`, the Ki is 0.629 µM in experiment [1], more than 10 µM in experiment [2], 0.0154 µM in experiment [5] and more than 10 µM in experiment [6]. Also, the IC50 in experiment [3] is more than 25 µM; in experiment [4] it was more than 25 µM; in experiment [7], more than 50 µM; in experiment [8], more than 25 µM.
Consider `CCOc1ccc(S(=O)(=O)N(CC)CC)cc1-c1nnc2c(n1)c(C)nn2C`, for which the Ki in experiment [1] was 0.281 µM; in experiment [2] it was more than 10 µM; in experiment [5] it was 0.0424 µM; in experiment [6], more than 10 µM. Further, the IC50 is more than 50 µM in experiment [3], more than 25 µM in experiment [4], more than 50 µM in experiment [7] and more than 25 µM in experiment [8].
Regarding `CCCc1nn(C)c2nnc(-c3cc(S(=O)(=O)N4CCNCC4)ccc3OCC)nc12`, the inhibition constant Ki was 0.0038 µM in experiment [1], more than 10 µM in experiment [2], 0.0387 µM in experiment [5] and more than 10 µM in experiment [6].
In the case of `CCOc1ccc(S(=O)(=O)NC(C)(CO)CO)cc1-c1nnc2c(n1)c(C)nn2C`, the Ki in experiment [1] was 0.0409 µM; in experiment [2] it was more than 10 µM; in experiment [5], 0.0326 µM; in experiment [6], more than 10 µM. The half-maximal inhibitory concentration (IC50) in experiment [3], in experiment [4], in experiment [7] and in experiment [8] was more than 100 µM throughout.
Take `CCOc1ccc(S(=O)(=O)NC(C)(C)CO)cc1-c1nnc2c(n1)c(C)nn2C`: the inhibition constant (Ki) was 0.608 µM in experiment [1], more than 10 µM in experiment [2], 0.0313 µM in experiment [5] and more than 10 µM in experiment [6]. Moreover, the half-maximal inhibitory concentration (IC50) in experiment [3], in experiment [4], in experiment [7] and in experiment [8] was more than 100 µM in each case.
On to `CCOc1ccc(S(N)(=O)=O)cc1-c1nnc2c(n1)c(C)nn2C`, for which the Ki came to 0.0055 µM in experiment [1], 6.83 µM in experiment [2], 0.0316 µM in experiment [5] and 0.422 µM in experiment [6].
Consider `Cc1ccc(NC(=O)c2ccc(CN3CCN(C)CC3)cc2)cc1Nc1nccc(-c2cccnc2)n1` [IMATINIB], for which, in experiment [4], the 50% inhibitory concentration (IC50) is more than 10 µM.
